Test results from PubChem BioAssay (NCI).
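Protocol summary: plate cells (96-well), add compound at 5 concentrations, incubate 48 h, interpolate endpoints linearly. Here, GI50 denotes the concentration required for 50% inhibition of growth. TGI: total growth inhibition.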

What was measured:
Experiment in all cases: DTP human tumour cell line panel, 48 h
MCF7 breast = system: MCF7 breast
RXF 393 renal = system: RXF 393 renal
786-0 renal = system: 786-0 renal
U251 CNS = system: U251 CNS
SNB-19 CNS = system: SNB-19 CNS
RPMI-8226 leukemia = system: RPMI-8226 leukemia
CAKI-1 renal = system: CAKI-1 renal
NCI-H460 lung = system: NCI-H460 lung
K-562 leukemia = system: K-562 leukemia
NCI-H23 lung = system: NCI-H23 lung
SK-MEL-28 melanoma = system: SK-MEL-28 melanoma
HCC-2998 colon = system: HCC-2998 colon
BT-549 breast = system: BT-549 breast
ACHN renal = system: ACHN renal
HT29 colon = system: HT29 colon
A498 renal = system: A498 renal
TK-10 renal = system: TK-10 renal
IGROV1 ovarian = system: IGROV1 ovarian
LOX IMVI melanoma = system: LOX IMVI melanoma
OVCAR-4 ovarian = system: OVCAR-4 ovarian
MOLT-4 leukemia = system: MOLT-4 leukemia
KM12 colon = system: KM12 colon
SF-539 CNS = system: SF-539 CNS
UACC-257 melanoma = system: UACC-257 melanoma
MDA-MB-435 = system: MDA-MB-435
HOP-92 NSCLC = system: HOP-92 NSCLC
SN12C renal = system: SN12C renal
MALME-3M melanoma = system: MALME-3M melanoma
UO-31 renal = system: UO-31 renal
M14 melanoma = system: M14 melanoma
HS 578T breast = system: HS 578T breast
PC-3 prostate = system: PC-3 prostate
HCT-15 colon = system: HCT-15 colon
HL-60(TB) leukemia = system: HL-60(TB) leukemia
SF-295 CNS = system: SF-295 CNS
DU-145 prostate = system: DU-145 prostate
MDA-MB-468 breast = system: MDA-MB-468 breast
HOP-62 NSCLC = system: HOP-62 NSCLC
NCI/ADR-RES ovarian = system: NCI/ADR-RES ovarian
OVCAR-3 ovarian = system: OVCAR-3 ovarian
SK-MEL-2 melanoma = system: SK-MEL-2 melanoma
NCI-H522 lung = system: NCI-H522 lung
EKVX NSCLC = system: EKVX NSCLC
OVCAR-5 ovarian = system: OVCAR-5 ovarian
SK-MEL-5 melanoma = system: SK-MEL-5 melanoma
NCI-H226 lung = system: NCI-H226 lung
SK-OV-3 ovarian = system: SK-OV-3 ovarian
UACC-62 melanoma = system: UACC-62 melanoma
SNB-75 CNS = system: SNB-75 CNS
T-47D breast = system: T-47D breast
SF-268 CNS = system: SF-268 CNS
SW-620 colon = system: SW-620 colon
CCRF-CEM leukemia = system: CCRF-CEM leukemia
MDA-MB-231 breast = system: MDA-MB-231 breast
OVCAR-8 ovarian = system: OVCAR-8 ovarian
A549 NSCLC = system: A549 NSCLC
COLO 205 colon = system: COLO 205 colon
SR leukemia = system: SR leukemia
HCT-116 colon = system: HCT-116 colon

Compound O=C(CSc1nc2ccccc2c(=O)n1-c1ccc(Cl)cc1)Nc1ccc(-c2nc3ccccc3[nH]2)cc1 has a GI50 (MCF7 breast) of 1.31 µM, a TGI (MCF7 breast) of 2.85 µM and a GI50 (RXF 393 renal) of 2.09 µM. For the same compound, the TGI (RXF 393 renal) was 5.31 µM, the GI50 (786-0 renal) was 1.88 µM and the TGI (786-0 renal) was 3.69 µM. For the same compound, the GI50 (U251 CNS) was 1.84 µM, the TGI (U251 CNS) was 3.23 µM and the GI50 (SNB-19 CNS) was 2.22 µM. For the same compound, the TGI (SNB-19 CNS) was 5.28 µM, the GI50 (RPMI-8226 leukemia) was 2.78 µM and the TGI (RPMI-8226 leukemia) was 10.1 µM. For the same compound, the GI50 (CAKI-1 renal) was 4.51 µM, the TGI (CAKI-1 renal) was 15.6 µM and the GI50 (NCI-H460 lung) was 1.77 µM. For the same compound, the TGI (NCI-H460 lung) was 3.38 µM, the GI50 (K-562 leukemia) was 3.02 µM and the TGI (K-562 leukemia) was 11.5 µM. The GI50 (NCI-H23 lung) was 2.24 µM, the TGI (NCI-H23 lung) was 5.89 µM and the GI50 (SK-MEL-28 melanoma) was 1.82 µM. The TGI (SK-MEL-28 melanoma) was 3.43 µM, the GI50 (HCC-2998 colon) was 3.12 µM and the TGI (HCC-2998 colon) was 11.6 µM. The GI50 (BT-549 breast) was 5.33 µM, the TGI (BT-549 breast) was 17.5 µM and the GI50 (ACHN renal) was 3.28 µM. The TGI (ACHN renal) was 10.7 µM, the GI50 (HT29 colon) was 2.1 µM and the TGI (HT29 colon) was 4.46 µM. The GI50 (A498 renal) was 15.9 µM, the TGI (A498 renal) was 29.3 µM and the GI50 (TK-10 renal) was 1.85 µM. For the same compound, the TGI (TK-10 renal) was 3.64 µM, the GI50 (IGROV1 ovarian) was 3.04 µM and the TGI (IGROV1 ovarian) was 12.5 µM. The GI50 (LOX IMVI melanoma) was 1.55 µM, the TGI (LOX IMVI melanoma) was 2.89 µM and the GI50 (OVCAR-4 ovarian) was 1.88 µM. For the same compound, the TGI (OVCAR-4 ovarian) was 3.94 µM, the GI50 (MOLT-4 leukemia) was 3.47 µM and the TGI (MOLT-4 leukemia) was 18.1 µM. The GI50 (KM12 colon) was 10.9 µM, the TGI (KM12 colon) was 40 µM and the GI50 (SF-539 CNS) was 2.11 µM. The TGI (SF-539 CNS) was 4.89 µM, the GI50 (UACC-257 melanoma) was 1.94 µM and the TGI (UACC-257 melanoma) was 4.55 µM. For the same compound, the GI50 (MDA-MB-435) was 2.05 µM, the TGI (MDA-MB-435) was 4.53 µM and the GI50 (HOP-92 NSCLC) was 1.66 µM. For the same compound, the TGI (HOP-92 NSCLC) was 5.33 µM, the GI50 (SN12C renal) was 1.73 µM and the TGI (SN12C renal) was 3.3 µM. It also gave a GI50 (MALME-3M melanoma) of 1.96 µM, a TGI (MALME-3M melanoma) of 4.47 µM and a GI50 (UO-31 renal) of 2.03 µM. For the same compound, the TGI (UO-31 renal) was 5.4 µM, the GI50 (M14 melanoma) was 2.48 µM and the TGI (M14 melanoma) was 7.06 µM. For the same compound, the GI50 (HS 578T breast) was 2.12 µM, the TGI (HS 578T breast) was 4.82 µM and the GI50 (PC-3 prostate) was 3.01 µM. For the same compound, the TGI (PC-3 prostate) was 10.9 µM, the GI50 (HCT-15 colon) was 1.57 µM and the TGI (HCT-15 colon) was 3.77 µM. It also gave a GI50 (HL-60(TB) leukemia) of 6.92 µM, a TGI (HL-60(TB) leukemia) of 21.7 µM and a GI50 (SF-295 CNS) of 3.3 µM. The TGI (SF-295 CNS) was 11.8 µM, the GI50 (DU-145 prostate) was 2.12 µM and the TGI (DU-145 prostate) was 4.76 µM. The GI50 (MDA-MB-468 breast) was 1.9 µM, the TGI (MDA-MB-468 breast) was 4.7 µM and the GI50 (HOP-62 NSCLC) was 2 µM. For the same compound, the TGI (HOP-62 NSCLC) was 4.11 µM, the GI50 (NCI/ADR-RES ovarian) was 2.49 µM and the TGI (NCI/ADR-RES ovarian) was 7.35 µM. For the same compound, the GI50 (OVCAR-3 ovarian) was 2.05 µM, the TGI (OVCAR-3 ovarian) was 4.3 µM and the GI50 (SK-MEL-2 melanoma) was 3.06 µM. The TGI (SK-MEL-2 melanoma) was 11.9 µM, the GI50 (NCI-H522 lung) was 1.95 µM and the TGI (NCI-H522 lung) was 4.54 µM. The GI50 (EKVX NSCLC) was 3.95 µM, the TGI (EKVX NSCLC) was 14.8 µM and the GI50 (OVCAR-5 ovarian) was 3.12 µM. The TGI (OVCAR-5 ovarian) was 13.7 µM, the GI50 (SK-MEL-5 melanoma) was 3.62 µM and the TGI (SK-MEL-5 melanoma) was 12.8 µM. The GI50 (NCI-H226 lung) was 9 µM, the TGI (NCI-H226 lung) was 22.5 µM and the GI50 (SK-OV-3 ovarian) was 10.2 µM. For the same compound, the TGI (SK-OV-3 ovarian) was 21.9 µM, the GI50 (UACC-62 melanoma) was 1.99 µM and the TGI (UACC-62 melanoma) was 4.59 µM. The GI50 (SNB-75 CNS) was 1.71 µM, the TGI (SNB-75 CNS) was 6.04 µM and the GI50 (T-47D breast) was 1.78 µM. It also gave a TGI (T-47D breast) of 3.56 µM, a GI50 (SF-268 CNS) of 3.67 µM and a TGI (SF-268 CNS) of 15.7 µM. For the same compound, the GI50 (SW-620 colon) was 1.84 µM, the TGI (SW-620 colon) was 3.63 µM and the GI50 (CCRF-CEM leukemia) was 4.39 µM. It also gave a TGI (CCRF-CEM leukemia) of 19.5 µM, a GI50 (MDA-MB-231 breast) of 1.91 µM and a TGI (MDA-MB-231 breast) of 3.86 µM. It also gave a GI50 (OVCAR-8 ovarian) of 1.83 µM, a TGI (OVCAR-8 ovarian) of 3.66 µM and a GI50 (A549 NSCLC) of 1.57 µM. For the same compound, the TGI (A549 NSCLC) was 3.01 µM, the GI50 (COLO 205 colon) was 2.52 µM and the TGI (COLO 205 colon) was 8.14 µM. For the same compound, the GI50 (SR leukemia) was 1.42 µM, the TGI (SR leukemia) was 7.77 µM and the GI50 (HCT-116 colon) was 1.91 µM. The TGI (HCT-116 colon) was 3.65 µM.
